Values of other authors in paper PMC6311893, “Computational prediction of plasma protein binding of cyclic peptides from small molecule experimental data using sparse modeling techniques” (BMC Bioinformatics, 2018).
Like-named read-outs stand apart in the source and are kept apart here.

Test system: plasma protein
Details: cited from earlier work
[1] = fraction bound to plasma protein, small molecule dataset, sheet 1-SM, ref Ingle et al.
[2] = fraction bound to plasma protein, small molecule dataset, sheet 1-SM, Set Dtr, ref Ingle et al.
[3] = fraction bound to plasma protein, small molecule dataset, sheet 1-SM (Set Dte = test, Dtr = training), ref Ingle et al.

Molecule: CCN(CCCCOC(=O)c1ccc(OC)c(OC)c1)C(C)Cc1ccc(OC)cc1 (stereo not drawn) [mebeverine]
- PPB (fb) [1]: 0.75

Molecule: CCOC(=O)c1ncn2c1CN(C)C(=O)c1cc(F)ccc1-2 [Flumazenil]
- PPB (fb) [2]: 0.46

Molecule: Cc1c(C)c2c(c(C)c1O)CCC(C)(COc1ccc(CC3SC(=O)NC3=O)cc1)O2 (stereo not drawn) [troglitazone]
- PPB (fb) [2]: 0.99

Molecule: O=C1CN(/N=C/c2ccc(-c3ccc([N+](=O)[O-])cc3)o2)C(O)=N1 [dantrolene]
- PPB (fb) [3]: 0.89

Molecule: CC(C)(O)C(Cl)(Cl)Cl [chlorobutanol]
- PPB (fb) [3]: 0.55

Molecule: CC(CN(C)C)CN1c2ccccc2CCc2ccccc21 (stereo not drawn) [Trimipramine]
- PPB (fb) [1]: 0.95

Molecule: CN(C)CCC=C1c2ccccc2C=Cc2ccccc21 [cyclobenzaprine]
- PPB (fb) [3]: 0.93

Molecule: spironolactone
- PPB (fb) (plasma): 0.98

Molecule: C[C@@H](O)[C@H]1C(=O)N2C(C(=O)O)=C(S[C@@H]3CN[C@H](C(=O)Nc4cccc(C(=O)O)c4)C3)[C@H](C)[C@H]12 [Ertapenem]
- PPB (fb) [2]: 0.91

Molecule: c1ccc(CC2=NCCN2)cc1 [tolazoline]
- PPB (fb) [2]: 0.23

Molecule: CS(=O)(=O)OCCCCOS(C)(=O)=O [Busulphan]
- PPB (fb) [2]: 0.04

Molecule: CCOC(=O)[C@H](CCc1ccccc1)N[C@@H](C)C(=O)N1Cc2ccccc2C[C@H]1C(=O)O [quinapril]
- PPB (fb) [1]: 0.97

Molecule: O=C(O)Cc1ccccc1Oc1ccc(Cl)cc1Cl [fenclofenac]
- PPB (fb) [1]: 0.99

Molecule: COc1cc2nc(N(C)CCCNC(=O)C3CCCO3)nc(N)c2cc1OC (stereo not drawn) [alfuzosin]
- PPB (fb) [3]: 0.9

Molecule: CN1CCN(CC(=O)N2c3ccccc3C(=O)Nc3cccnc32)CC1 [pirenzepine]
- PPB (fb) [1]: 0.1

Molecule: CCOC(=O)[C@H](CCc1ccccc1)N[C@@H](C)C(=O)N1[C@H](C(=O)O)C[C@H]2CCCC[C@@H]21 [trandolapril]
- PPB (fb) [3]: 0.84

Molecule: CCN[C@@H]1C[C@H](N)[C@@H](O[C@H]2OC(CN)=CC[C@H]2N)[C@H](O)[C@H]1O[C@H]1OC[C@](C)(O)[C@H](NC)[C@H]1O [Netilmicin]
- PPB (fb) [3]: 0.05

Molecule: Cc1ccc(S(=O)(=O)NC(=O)NN2CC3CCCC3C2)cc1 (stereo not drawn) [gliclazide]
- PPB (fb) [1]: 0.91

Molecule: lanatoside-C
- PPB (fb) [1]: 0.25

Molecule: Cc1cnc(C(=O)O)c[n+]1[O-] [acipimox]
- PPB (fb) [3]: 0.02

Molecule: methacycline
- PPB (fb) (plasma): 0.84

Molecule: O=C1CCC(Cc2ccc(O)c(O)c2)O1 (stereo not drawn)
- PPB (fb) [3]: 0.35

Molecule: CC(C(=O)O)c1cccc(Oc2ccccc2)c1 (stereo not drawn) [fenoprofen]
- PPB (fb) [1]: 0.99

Molecule: CC(CC(c1ccccc1)c1ccccc1)NC(C)(C)C (stereo not drawn) [Terodiline]
- PPB (fb) [1]: 0.88

Molecule: CC(C(=O)NCCCN1CCCC1)c1ccc(OS(=O)(=O)C(F)(F)F)cc1 (stereo not drawn) [JMC_05]
- PPB (fb) [1]: 0.62

Molecule: CC(C(=O)O)c1ccc(C(=O)c2ccccc2)s1 (stereo not drawn) [tiaprofenic acid]
- PPB (fb) [1]: 0.98

Molecule: CNC(C)C1CCC(N)C(OC2C(N)CC(N)C(OC3OCC(C)(O)C(NC)C3O)C2O)O1 (stereo not drawn) [Gentamicin]
- PPB (fb) (plasma): 0.1

Molecule: CC(=O)Oc1ccccc1C(=O)O [Aspirin]
- PPB (fb) [2]: 0.43

Molecule: O=C1CN(/N=C/c2ccc([N+](=O)[O-])o2)C(=O)N1 [Nitrofurantoin]
- PPB (fb) [2]: 0.73

Molecule: CC(C)C[C@H](NC(=O)[C@@H](COC(C)(C)C)NC(=O)[C@H](Cc1ccc(O)cc1)NC(=O)[C@H](CO)NC(=O)[C@H](Cc1c[nH]c2ccccc12)NC(=O)[C@H](Cc1cnc[nH]1)NC(=O)[C@@H]1CCC(=O)N1)C(=O)N[C@@H](CCCNC(=N)N)C(=O)N1CCC[C@H]1C(=O)NNC(N)=O [goserelin]
- PPB (fb) (human, plasma): 0.2

Molecule: CCN(CC)CCCN(c1ccccc1)C1Cc2ccccc2C1 [aprindine]
- PPB (fb) [3]: 0.95

Molecule: acenocoumarol
- PPB (fb) (plasma): 0.98

Molecule: O=C(O)COC(=O)Cc1ccccc1Nc1c(Cl)cccc1Cl [aceclofenac]
- PPB (fb) [3]: 0.99

Molecule: CC(C)[C@H]1CC[C@H](C(=O)N[C@H](Cc2ccccc2)C(=O)O)CC1 [Nateglinide]
- PPB (fb) [2]: 0.98

Molecule: C/C(=C\C(=O)OCCCCCCCCC(=O)O)C[C@@H]1OC[C@H](C[C@@H]2O[C@H]2[C@@H](C)[C@H](C)O)[C@@H](O)[C@H]1O [mupirocin]
- PPB (fb) [1]: 0.96

Molecule: COC(=O)CCc1ccc(OCC(O)CNC(C)C)cc1 (stereo not drawn) [Esmolol]
- PPB (fb) [2]: 0.48

Molecule: NC(=O)C[S+]([O-])C(c1ccccc1)c1ccccc1 (stereo not drawn) [modafinil]
- PPB (fb) (plasma): 0.6

Molecule: C[C@@H]([C@@H](O)c1ccc(O)cc1)N1CCC(O)(c2ccccc2)CC1 [Traxoprodil]
- PPB (fb) [3]: 0.37

Molecule: CCc1cc(C(N)=S)ccn1 [ethionamide]
- PPB (fb) [1]: 0.3

Molecule: CCN(CC)CCNC(=O)c1cc(S(C)(=O)=O)ccc1OC [tiapride]
- PPB (fb) [1]: 0

Molecule: CC(C)(C)c1ccc(C(=O)CCCN2CCC(OC(c3ccccc3)c3ccccc3)CC2)cc1 [ebastine]
- PPB (fb) [3]: 0.98

Molecule: CC1(C)SC2C(NC(=O)C(Cl)c3cccc(Cl)c3)C(=O)N2C1C(=O)O (stereo not drawn) [penicillin23]
- PPB (fb) [3]: 0.94

Molecule: CC(=O)Nc1c(I)c(C(=O)O)c(I)c(N(C)C(C)=O)c1I [Metrizoate]
- PPB (fb) [2]: 0

Molecule: Cn1cc[nH]c1=S [thiamazole]
- PPB (fb) [3]: 0

Molecule: C[C@@H](CN1CC(=O)NC(=O)C1)N1CC(=O)NC(=O)C1 [Dexrazoxane]
- PPB (fb) [2]: 0.01

Molecule: CC1=C(/C=C/C(C)=C/C=C/C(C)=C\C(=O)O)C(C)(C)CCC1 [isotretinoin]
- PPB (fb) [1]: 0.95

Molecule: O=NN(CCCl)C(=O)NCCCl [Carmustine (BCNU)]
- PPB (fb) (plasma): 0.77

Molecule: CCCCC1C(=O)N(c2ccccc2)N(c2ccc(O)cc2)C1=O (stereo not drawn) [oxyphenbutazone]
- PPB (fb) [1]: 0.99

Molecule: CCc1c2c(nc3ccc(OC(=O)N4CCC(N5CCCCC5)CC4)cc13)-c1cc3c(c(=O)n1C2)COC(=O)[C@]3(O)CC [Irinotecan]
- PPB (fb) [3]: 0.57

Molecule: COc1ccccc1Oc1c(NS(=O)(=O)c2ccc(C(C)(C)C)cc2)nc(-c2ncccn2)nc1OCCO [Bosentan]
- PPB (fb) [2]: 0.97

Molecule: O=C(CCCN1CCC(O)(c2ccc(Cl)cc2)CC1)c1ccc(F)cc1 [Haloperidol]
- PPB (fb) [2]: 0.92

Molecule: C[C@H]1O[C@H](O[C@H]2[C@H](O)[C@@H](O)[C@@H](O[C@H]3[C@H](O)[C@@H](O)C(O)O[C@@H]3CO)O[C@@H]2CO)[C@H](O)[C@@H](O)[C@@H]1N[C@H]1C=C(CO)[C@@H](O)[C@H](O)[C@H]1O (stereo partly drawn) [acarbose]
- PPB (fb) [3]: 0.15

Molecule: C=C1CC[C@@]2(O)[C@H]3Cc4ccc(O)c5c4[C@@]2(CCN3CC2CC2)[C@H]1O5 [Nalmefene]
- PPB (fb) [2]: 0.36

Molecule: CCOCCC(=O)NC1C(=O)N2C1SC(C)(C)C2C(=O)O (stereo not drawn) [penicillin11]
- PPB (fb) [1]: 0.25

Molecule: CN(C)CC(c1ccc(O)cc1)C1(O)CCCCC1 (stereo not drawn) [O-desmethylvenlafaxine]
- PPB (fb) [1]: 0.3

Molecule: CC1(C)O[C@@H]2[C@@H](CO[C@@]3(COS(N)(=O)=O)OC(C)(C)O[C@@H]23)O1 [topiramate]
- PPB (fb) [2]: 0.15

Molecule: Tigecycline
- PPB (fb) (plasma): 0.8
